Test results published in patent US20250019387A1 (Frontier Medicines Corporation, priority 0001, published 2025).

molecular target: KRAS G12C and cRAF (Ras-binding domain) interaction (Homo sapiens (Human), UniProt P01116, C118S/C51S/C80L/G12C); assay: Inhibition of KRAS G12C and cRAF binding (AlphaScreen); conditions: GMPPNP-loaded KRAS G12C, 19-20 hours incubation with compound; read-out: IC50 (Inhibition of KRAS G12C and cRAF Binding)
Outline: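 IC50 values come from 4-parameter nonlinear regression of AlphaScreen signal (680 nm excitation, 570 nm emission). Compound plates sat 19-20 h at room temperature before RBD and donor/acceptor beads were added in Hepes pH 7.4 buffer with 150 mM NaCl, 5 mM MgCl2, 2% DMSO for 60-90 min; biotin-AviTag-GST replaced RBD to flag assay-technology interferers.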

Chain of KRAS G12C and cRAF (Ras-binding domain) interaction (P01116 other isoform, or with tags, fused parts or gaps G12C/C51S/C80L/C118S): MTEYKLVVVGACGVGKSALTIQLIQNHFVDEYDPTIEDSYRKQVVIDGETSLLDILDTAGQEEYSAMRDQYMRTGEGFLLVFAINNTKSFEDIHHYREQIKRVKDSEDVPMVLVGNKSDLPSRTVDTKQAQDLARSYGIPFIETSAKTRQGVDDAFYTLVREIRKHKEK

| SMILES | IC50 |
| --- | --- |
| C=CC(=O)C1[C@H]2CCN(c3nc(OC[C@@H]4CCCN4C)nc4c3CCN(c3cccc5cccc(Cl)c35)C4)C[C@@H]12 (stereo in doubt) [Example 43] | 0.01 to 0.1 µM |

same assay, conditions: additional exemplary compounds; KRAS G12C and cRAF binding; read-out: RAF1 RBD IC50

| SMILES | IC50 |
| --- | --- |
| CN(C)C(=O)/C=C/C(=O)N1CC[C@@H](N(C)c2nc(OCC34CCCN3CCC4)nc3c(F)c(-c4cccc5cccc(Cl)c45)ncc23)C1 | > 0.5 µM |
| CN(C)C(=O)/C=C/C(=O)N1CC(CN(C)c2nc(OCC34CCCN3CCC4)nc3c2CCN(c2cccc4cccc(Cl)c24)C3)C1 | > 0.5 µM |
| C=CC(=O)CCN(C)c1nc(OC[C@@H]2CCCN2C)nc2c1CCN(c1cccc3cccc(Cl)c13)C2 | 0.01 to 0.1 µM |
| CN(C)C(=O)/C=C/C(=O)N1CC(CN(C)c2nc(OCC34CCCN3CCC4)nc3c(F)c(-c4cccc5cccc(Cl)c45)ncc23)C1 | > 0.5 µM |
| C=CC(=O)CCCN(C)c1nc(OC[C@@H]2CCCN2C)nc2c1CCN(c1cccc3cccc(Cl)c13)C2 | < 0.01 µM |
| CN(C)C/C=C/S(=O)(=O)CCN(C)c1nc(OCC23CCCN2CCC3)nc2c1CCN(c1cccc3ccc(F)c(Cl)c13)C2 | < 0.01 µM |
| CCN(C/C=C/S(=O)(=O)CCN(C)c1nc(OCC23CCCN2CCC3)nc2c(F)c(-c3cccc4cccc(Cl)c34)ncc12)CCOC | 0.01 to 0.1 µM |
| C=CC(=O)N1CCC[C@@H](N(C)c2nc(OC[C@@]34CCCN3C[C@H](F)C4)nc3c2CCN(c2cccc4cccc(Cl)c24)C3)C1 | > 0.5 µM |
| C#Cc1c(F)ccc2cccc(-c3ncc4c(N(C)[C@@H]5CCN(C(=O)/C=C/c6cccnc6)C5)nc(OC[C@@]56CCCN5C[C@H](F)C6)nc4c3F)c12 | > 0.5 µM |
| C=CC(=O)N1CCC[C@@H](Nc2nc(OC[C@@]34CCCN3C[C@H](F)C4)nc3c(F)c(-c4cccc5cccc(Cl)c45)ncc23)C1 | > 0.5 µM |
| C=CC(=O)N1CC2CC(Nc3nc(OC[C@@]45CCCN4C[C@H](F)C5)nc4c(F)c(-c5cccc6cccc(Cl)c56)ncc34)C1C2 (some centres unmarked) | > 0.5 µM |
| C=CC(=O)N1CC[C@H](C)[C@H](Nc2nc(OC[C@@]34CCCN3C[C@H](F)C4)nc3c(F)c(-c4cccc5cccc(Cl)c45)ncc23)C1 | > 0.5 µM |
| C=CC(=O)N1CC[C@H](O)[C@@H](N(C)c2nc(OC[C@@]34CCCN3C[C@H](F)C4)nc3c(F)c(-c4cccc5cccc(Cl)c45)ncc23)C1 | 0.01 to 0.1 µM |
| C=CC(=O)N1CC[C@@H](F)[C@@H](N(C)c2nc(OC[C@@]34CCCN3C[C@H](F)C4)nc3c(F)c(-c4cccc5cccc(Cl)c45)ncc23)C1 | > 0.5 µM |
| C=CC(=O)N1CCCC1CNc1nc(OC[C@@]23CCCN2C[C@H](F)C3)nc2c(F)c(-c3cccc4cccc(Cl)c34)ncc12 (some centres unmarked) | > 0.5 µM |
| C=CC(=O)N1CC[C@@H](O)[C@H](N(C)c2nc(OC[C@@]34CCCN3C[C@H](F)C4)nc3c(F)c(-c4cccc5cccc(Cl)c45)ncc23)C1 | > 0.5 µM |
| C=CC(=O)N1CCC(CN(C)c2nc(OC[C@@]34CCCN3C[C@H](F)C4)nc3c(F)c(-c4cccc5cccc(Cl)c45)ncc23)C1 (some centres unmarked) | > 0.5 µM |
| C#Cc1c(F)ccc2cccc(-c3ncc4c(N(C)[C@H]5CCN(C(=O)C=C)C5)nc(OC[C@@]56CCCN5C[C@H](F)C6)nc4c3F)c12 | 0.1 to 0.5 µM |
| C=CC(=O)N1C[C@H](C)C[C@@H](Nc2nc(OC[C@@]34CCCN3C[C@H](F)C4)nc3c(F)c(-c4cccc5cccc(Cl)c45)ncc23)C1 | > 0.5 µM |
| CN(c1nc(OCC23CCCN2CCC3)nc2c1CCN(c1cccc3ccc(F)c(Cl)c13)C2)[C@@H]1CCN(C#N)C1 | 0.01 to 0.1 µM |
| C=CC(=O)N1CCCC1CN(C)c1nc(OC[C@@]23CCCN2C[C@H](F)C3)nc2c(F)c(-c3cccc4cccc(Cl)c34)ncc12 (some centres unmarked) | > 0.5 µM |
| CN(C)C/C=C/C(=O)N1CC[C@@H](N(C)c2nc(OCC34CCCN3CCC4)nc3c(F)c(-c4cccc5cccc(Cl)c45)ncc23)C1 | 0.01 to 0.1 µM |
| C#Cc1c(F)ccc2cccc(-c3ncc4c(N(C)[C@H]5CCN(C(=O)C=C)C5)nc(OC[C@]56CCCN5C[C@H](F)C6)nc4c3F)c12 | > 0.5 µM |
| CCN(C/C=C/S(=O)(=O)CCN(C)c1nc(OCC23CCCN2CCC3)nc2c1CCN(c1cccc3cccc(Cl)c13)C2)CCOC | 0.01 to 0.1 µM |
| C=CC(=O)N1CC[C@@H](N(C)c2nc(OCC34CCCN3CCC4)nc3c2CCN(c2cccc4ccc(F)c(Cl)c24)C3)C1 | 0.1 to 0.5 µM |
| C=CC(=O)N1CC(CN(C)c2nc(OC[C@@]34CCCN3C[C@H](F)C4)nc3c(F)c(-c4cccc5cccc(Cl)c45)ncc23)C1 | 0.01 to 0.1 µM |
| CN(CCS(=O)(=O)/C=C/CN1CC(F)(F)C1)c1nc(OC[C@@H]2CCCN2C)nc2c(F)c(-c3cccc4cccc(Cl)c34)ncc12 | > 0.5 µM |

The next lines start with the values.

| IC50 | SMILES |
| --- | --- |
| > 0.5 µM | C/C=C/C(=O)CN(C)c1nc(OC[C@@H]2CCCN2C)nc2c1CCN(c1cccc3ccccc13)C2 |
| 0.01 to 0.1 µM | C=CS(=O)(=O)C1CCC(N(C)c2nc(OCC34CCCN3CCC4)nc3c2CCN(c2cccc4cccc(Cl)c24)C3)C1 (centres unmarked) |
| > 0.5 µM | C=CC(=O)CCOc1nc(OC[C@@H]2CCCN2C)nc2c1CCN(c1cccc3ccccc13)C2 |
| > 0.5 µM | C=CC(=O)COc1nc(OC[C@@H]2CCCN2C)nc2c1CCN(c1cccc3ccccc13)C2 |
| 0.01 to 0.1 µM | CN(C)C/C=C/C(=O)N1CC(CN(C)c2nc(OCC34CCCN3CCC4)nc3c(F)c(-c4cccc5cccc(Cl)c45)ncc23)C1 |
| > 0.5 µM | C=CC(=O)CCNc1nc(OC[C@@H]2CCCN2C)nc2c1CCN(c1cccc3ccccc13)C2 |
| > 0.5 µM | C=CC(=O)[C@@H]1CC[C@H]1Nc1nc(OC[C@@H]2CCCN2C)nc2c1CCN(c1cccc3ccccc13)C2 |
| > 0.5 µM | C#Cc1c(F)ccc2cccc(-c3ncc4c(N(C)[C@@H]5CCN(C(=O)/C=C/c6ccccn6)C5)nc(OC[C@@]56CCCN5C[C@H](F)C6)nc4c3F)c12 |
| 0.1 to 0.5 µM | C=CC(=O)N1CC[C@@H](N(C)c2nc(OCC34CCCN3CCC4)nc3c(F)c(-c4cccc5cccc(Cl)c45)ncc23)C1 |
| 0.1 to 0.5 µM | C=CC(=O)N1CC[C@@H](N(C)c2nc(OC[C@@]34CCCN3C[C@H](F)C4)nc3c2CCN(c2cccc4cccc(Cl)c24)C3)C1 |
| > 0.5 µM | C=CC(=O)N1CC[C@@H](C)[C@@H](Nc2nc(OC[C@@]34CCCN3C[C@H](F)C4)nc3c(F)c(-c4cccc5cccc(Cl)c45)ncc23)C1 |
| 0.01 to 0.1 µM | C=CS(=O)(=O)C1CCCN(c2nc(OCC34CCCN3CCC4)nc3c2CCN(c2cccc4cccc(Cl)c24)C3)C1 (centres unmarked) |
| 0.1 to 0.5 µM | CN(C)C/C=C/C(=O)N1CC[C@@H](N(C)c2nc(OC[C@@H]3CCCN3C)nc3c2CCN(c2cccc4cccc(Cl)c24)C3)C1 |
| > 0.5 µM | C=CC(=O)N1C[C@@H](C)C[C@@H](Nc2nc(OC[C@@]34CCCN3C[C@H](F)C4)nc3c(F)c(-c4cccc5cccc(Cl)c45)ncc23)C1 |
| 0.01 to 0.1 µM | C=CC(=O)N1CC[C@@H](N(C)c2nc(OC[C@@]34CCCN3C[C@H](F)C4)nc3c(F)c(-c4cccc5cccc(Cl)c45)ncc23)C1 |
| > 0.5 µM | C=CC(=O)N1C[C@H](C)C[C@H](Nc2nc(OC[C@@]34CCCN3C[C@H](F)C4)nc3c(F)c(-c4cccc5cccc(Cl)c45)ncc23)C1 |
| > 0.5 µM | C=CC(=O)N1CC[C@H](F)[C@@H](N(C)c2nc(OC[C@@]34CCCN3C[C@H](F)C4)nc3c(F)c(-c4cccc5cccc(Cl)c45)ncc23)C1 |

| IC50 | SMILES |
| --- | --- |
| > 0.5 µM | Cc1cc(/C=C/C(=O)N2CCC[C@@H](N(C)c3nc(OC[C@@]45CCCN4C[C@H](F)C5)nc4c(F)c(-c5cccc6cccc(Cl)c56)ncc34)C2)nc(C)n1 |
| 0.1 to 0.5 µM | C#Cc1c(F)ccc2cccc(-c3ncc4c(N(C)[C@@H]5CCCN(C(=O)/C=C/c6cc(C)nc(C)n6)C5)nc(OC[C@@]56CCCN5C[C@H](F)C6)nc4c3F)c12 |
| > 0.5 µM | C=CC(=O)N1CCC(CNc2nc(OC[C@@]34CCCN3C[C@H](F)C4)nc3c(F)c(-c4cccc5cccc(Cl)c45)ncc23)C1 (some centres unmarked) |
| 0.1 to 0.5 µM | Cc1noc(/C=C/C(=O)NCCN(C)c2nc(OCC34CCCN3CCC4)nc3c2CCN(c2cccc4cccc(Cl)c24)C3)n1 |
| > 0.5 µM | Cc1nc(/C=C/C(=O)NCCN(C)c2nc(OCC34CCCN3CCC4)nc3c2CCN(c2cccc4cccc(Cl)c24)C3)no1 |
| > 0.5 µM | CN(CCS(=O)(=O)/C=C/CN1CCC(F)(F)C1)c1nc(OCC23CCCN2CCC3)nc2c1CCN(c1cccc3cccc(Cl)c13)C2 |
| 0.1 to 0.5 µM | CN(c1nc(OCC23CCCN2CCC3)nc2c1CCN(c1cccc3cccc(Cl)c13)C2)[C@@H]1CCN(C(=O)/C=C/CN2CC(F)(F)C2)C1 |
| 0.1 to 0.5 µM | CN1CCC[C@H]1COc1nc(N(C)[C@@H]2CCN(C(=O)/C=C/CN3CC(F)(F)C3)C2)c2cnc(-c3cccc4cccc(Cl)c34)c(F)c2n1 |
| < 0.01 µM | CN(C)C/C=C/S(=O)(=O)CCN(C)c1nc(OC[C@@]23CCCN2C[C@H](F)C3)nc2c1CCN(c1cccc3cccc(Cl)c13)C2 |
| 0.1 to 0.5 µM | CN(C)C/C=C/C(=O)N1CC[C@@H](N(C)c2nc(OCC34CCCN3CCC4)nc3c2CCN(c2cccc4ccc(F)c(Cl)c24)C3)C1 |
| > 0.5 µM | C=CC(=O)N1CCC[C@@H](N(C)c2nc(OC[C@@]34CCCN3C[C@H](F)C4)nc3c(F)c(-c4cccc5cccc(Cl)c45)ncc23)C1 |
| 0.01 to 0.1 µM | C=CC(=O)N1CC[C@@H](N(C)c2nc(OC[C@@]34CCCN3C[C@H](F)C4)nc3c2CCN(c2cccc4ccc(F)c(Cl)c24)C3)C1 |
| 0.01 to 0.1 µM | CN(c1nc(OC[C@@]23CCCN2C[C@H](F)C3)nc2c(F)c(-c3cccc4cccc(Cl)c34)ncc12)[C@@H]1CCN(C#N)C1 |
| 0.1 to 0.5 µM | CN(C)C/C=C/C(=O)N1CC(CN(C)c2nc(OCC34CCCN3CCC4)nc3c2CCN(c2cccc4cccc(Cl)c24)C3)C1 |
| 0.01 to 0.1 µM | CN(c1nc(OCC23CCCN2CCC3)nc2c1CCN(c1cccc3cccc(Cl)c13)C2)[C@@H]1CCN(C(=O)/C=C/CN2CC(F)C2)C1 |
| < 0.01 µM | CCN(CC)C/C=C/S(=O)(=O)CCN(C)c1nc(OCC23CCCN2CCC3)nc2c(F)c(-c3cccc4cccc(Cl)c34)ncc12 |
| 0.01 to 0.1 µM | COCCN(C)C/C=C/S(=O)(=O)CCN(C)c1nc(OCC23CCCN2CCC3)nc2c(F)c(-c3cccc4cccc(Cl)c34)ncc12 |
